According to PubChem BioAssay AID2060503 (Molecular Pharmacology Branch, DTP, NCI, 2025):

System: 817829-284-R-J1-PDC complex spheroids, viability
Assay: Anticancer human tumor 817829-284-R-J1-PDC patient-derived colon adenocarcinoma cell line growth inhibition [GQUAD]
Settings: for IC50: curve of first compound; for viability, T/C: stronger effect = lower value
How it was run: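 Multi-cell-type spheroids of tumor cells with HUVEC and mesenchymal stem cells, treated with drug combinations. Concentrations descend in half-log steps from near clinical Cmax, or from 10 microM where Cmax is unknown; viability read-out.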
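Also: spheroids exposed to agents for 7 days before readout.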
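For viability, T/C in this document: percent viability relative to DMSO vehicle control taken as 100%.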

`C=CCn1c(=O)c2cnc(Nc3ccc(N4CCN(C)CC4)cc3)nc2n1-c1cccc(C(C)(C)O)n1` + CN(C)c1ccc(Nc2c3ccc(NC(=O)CCN4CCCC4)cc3nc3cc(NC(=O)CCN4CCCC4)ccc23)cc1 was tested, and the IC50 (second compound 0.0316 µM) was 0.24 µM, the IC50 (second compound 0.1 µM) was 0.22 µM and the IC50 (second compound 0.316 µM) was 0.263 µM. The IC50 (second compound 1 µM) was 0.231 µM, the IC50 (second compound 3.16 µM) was 0.214 µM and the IC50 (second compound 10 µM) was 0.19 µM. The viability, T/C (second compound 0.0316 µM, first compound 0.0316 µM) was 99.2%, the viability, T/C (second compound 0.0316 µM, first compound 0.1 µM) was 106% and the viability, T/C (second compound 0.0316 µM, first compound 0.316 µM) was 33.4%. It also gave a viability, T/C (second compound 0.0316 µM, first compound 1 µM) of 9.73%, a viability, T/C (second compound 0.0316 µM, first compound 3.16 µM) of 6.22% and a viability, T/C (second compound 0.0316 µM, first compound 10 µM) of 6.74%. The viability, T/C (second compound 0.1 µM, first compound 0.0316 µM) was 88.5%, the viability, T/C (second compound 0.1 µM, first compound 0.1 µM) was 101% and the viability, T/C (second compound 0.1 µM, first compound 0.316 µM) was 29.5%. It also gave a viability, T/C (second compound 0.1 µM, first compound 1 µM) of 9.11%, a viability, T/C (second compound 0.1 µM, first compound 3.16 µM) of 7.3% and a viability, T/C (second compound 0.1 µM, first compound 10 µM) of 5.57%. The viability, T/C (second compound 0.316 µM, first compound 0.0316 µM) was 102%, the viability, T/C (second compound 0.316 µM, first compound 0.1 µM) was 109% and the viability, T/C (second compound 0.316 µM, first compound 0.316 µM) was 39.2%. For the same molecule, the viability, T/C (second compound 0.316 µM, first compound 1 µM) was 9.34%, the viability, T/C (second compound 0.316 µM, first compound 3.16 µM) was 7.03% and the viability, T/C (second compound 0.316 µM, first compound 10 µM) was 5.88%. The viability, T/C (second compound 1 µM, first compound 0.0316 µM) was 99.8%, the viability, T/C (second compound 1 µM, first compound 0.1 µM) was 102% and the viability, T/C (second compound 1 µM, first compound 0.316 µM) was 30.9%. It also gave a viability, T/C (second compound 1 µM, first compound 1 µM) of 9.37%, a viability, T/C (second compound 1 µM, first compound 3.16 µM) of 6.93% and a viability, T/C (second compound 1 µM, first compound 10 µM) of 6.42%. It also gave a viability, T/C (second compound 3.16 µM, first compound 0.0316 µM) of 89.3%, a viability, T/C (second compound 3.16 µM, first compound 0.1 µM) of 102% and a viability, T/C (second compound 3.16 µM, first compound 0.316 µM) of 26.4%. For the same molecule, the viability, T/C (second compound 3.16 µM, first compound 1 µM) was 10.9%, the viability, T/C (second compound 3.16 µM, first compound 3.16 µM) was 7.22% and the viability, T/C (second compound 3.16 µM, first compound 10 µM) was 5.95%. The viability, T/C (second compound 10 µM, first compound 0.0316 µM) was 104%, the viability, T/C (second compound 10 µM, first compound 0.1 µM) was 82.4% and the viability, T/C (second compound 10 µM, first compound 0.316 µM) was 24%. The viability, T/C (second compound 10 µM, first compound 1 µM) was 11.2%, the viability, T/C (second compound 10 µM, first compound 3.16 µM) was 7.11% and the viability, T/C (second compound 10 µM, first compound 10 µM) was 2.4%.
